# Where two headings read alike, the source gives them in different places.
# Legend:
# A431 cells = experiment: PrestoBlue viability assay, A431 cells; conditions: Homo sapiens
# MES-SA/Dx5 cells = experiment: PrestoBlue viability assay, MES-SA/Dx5 cells (MDR, P-gp positive); conditions: for IC50: Homo sapiens; for SR_TQ: selectivity ratio MES-SA vs MES-SA/Dx5, with TQ; for SR: selectivity ratio MES-SA vs MES-SA/Dx5, without TQ
# MES-SA cells = experiment: PrestoBlue viability assay, MES-SA cells; conditions: Homo sapiens, MES-SA
# A431-B1 cells = experiment: PrestoBlue viability assay, A431-B1 (A431-ABCB1) cells
# [1] = A-431, 72 h, read-out: IC50 / µM A431, 72 h incubation
# [2] = A-431, read-out: pIC50 A431, SARM figure (converted)
# [3] = MES-SA/Dx5, 72 h, read-out: IC50 / μM MES-SA/Dx5, absence of TQ, 72 h incubation
# [4] = MES-SA/Dx5, read-out: IC50 / μM MES-SA/Dx5 (values in parentheses), presence of 1 μM P-gp inhibitor tariquidar (TQ)
# [5] = MES-SA/Dx5, read-out: pIC50 value MES-SA/Dx5 + TQ, MES-SA/Dx5 cells, with TQ (converted)
# [6] = MES-SA/Dx5, read-out: pIC50 value MES-SA/Dx5, MES-SA/Dx5 cells, without TQ (converted)
# [7] = 72 h, read-out: IC50 / μM MES-SA, absence of TQ, 72 h incubation
# [8] = read-out: IC50 / μM MES-SA (values in parentheses), presence of 1 μM P-gp inhibitor tariquidar (TQ)
# [9] = read-out: pIC50 value MES-SA+TQ, MES-SA cells, with TQ (converted)
# [10] = read-out: pIC50 value MES-SA, MES-SA cells, without TQ (converted)
# [11] = 72 h, read-out: IC50 / µM A431-B1, 72 h incubation
# [12] = read-out: pIC50 A431-B1, SARM figure (converted)
# [13] = MES-SA/Dx5, read-out: pIC50 Dx5_TQ, presence of 1 μM TQ (converted), SARM figure
# [14] = read-out: pIC50 MES-SA_TQ, presence of 1 μM TQ (converted), SARM figure
# [15] = read-out: pIC50 MES-SA, absence of TQ (converted), SARM figure
SMILES,IC50 (A431 cells; [1]) [µM],IC50 (A431 cells; [2]) [µM],IC50 (A431-B1 cells; [11]) [µM],IC50 (A431-B1 cells; [12]) [µM],IC50 (MES-SA/Dx5 cells; [3]) [µM],IC50 (MES-SA/Dx5 cells; [4]) [µM],IC50 (MES-SA/Dx5 cells; [5]) [µM],IC50 (MES-SA/Dx5 cells; [6]) [µM],SR_TQ (MES-SA/Dx5 cells),SR (MES-SA/Dx5 cells),IC50 (MES-SA cells; [7]) [µM],IC50 (MES-SA cells; [8]) [µM],IC50 (MES-SA cells; [9]) [µM],IC50 (MES-SA cells; [10]) [µM],IC50 (MES-SA/Dx5 cells; [13]) [µM],IC50 (MES-SA cells; [14]) [µM],"SR (MES-SA_TQ / Dx5_TQ) (values in parentheses) (MES-SA/Dx5 cells; fraction of IC50 in P-gp negative vs positive cells, presence of 1 μM TQ)",IC50 (MES-SA cells; [15]) [µM]
COCc1cc(CN2CCCC2)c(O)c2ncccc12 [Compound 17],53.2 ± 6.49,52.5,4.05 ± 0.07,4.07,1.37 ± 0.26,3.59 ± 0.53,3.55,1.35,2.92,8.09,11.1 ± 1.78,10.5 ± 0.17,10.5,11,–,–,–,–
COCc1cc(CN2CCCCC2)c(O)c2ncccc12 [Compound 21],22.6 ± 4.32,22.4,3.53 ± 0.14,3.55,0.92 ± 0.11,7.59 ± 0.08,7.59,0.912,1.26,10.19,9.35 ± 0.61,9.56 ± 0.39,9.55,9.33,–,–,–,–
CCOCc1cc(CN2CCCCC2)c(O)c2ncccc12 [Compound 22],25.2 ± 8.88,23.4,4.17 ± 1.49,3.89,0.79 ± 0.14,7.08 ± 0.23,7.08,0.776,1.29,11.12,8.77 ± 1.07,9.13 ± 0.32,9.12,8.71,–,–,–,–
COCc1cc(CN2CCC(C)CC2)c(O)c2ncccc12 [Compound 26],14.5 ± 3.84,13.8,2.29 ± 0.28,2.29,0.58 ± 0.05,4.68 ± 0.16,4.68,0.575,1.38,10.73,6.2 ± 0.66,6.47 ± 0.41,6.46,6.17,–,–,–,–
CCOCc1cc(CN2CCC(C)CC2)c(O)c2ncccc12 [Compound 27],11.8 ± 4.34,11,2.37 ± 0.87,2.24,0.47 ± 0.05,3.05 ± 0.47,3.02,0.468,1.47,8.71,4.09 ± 0.42,4.48 ± 0.37,4.47,4.07,–,–,–,–
COCc1cc(CN2CCOCC2)c(O)c2ncccc12 [Compound 31],34.4 ± 8.42,33.1,12.1 ± 1.47,12,5.64 ± 0.45,7.77 ± 0.31,7.76,5.62,1.15,1.75,9.89 ± 1.52,8.97 ± 1.01,8.91,9.77,–,–,–,–
CCOCc1cc(CN2CCOCC2)c(O)c2ncccc12 [Compound 32],24.7 ± 10.9,22.4,5.58 ± 0.58,5.5,3 ± 0.3,–,–,2.95,–,1.95,5.85 ± 0.54,–,–,5.75,–,–,–,–
CC(C)OCc1cc(CN2CCOCC2)c(O)c2ncccc12 [Compound 33],13.2 ± 6.23,12,4.76 ± 0.23,4.79,1.74 ± 0.29,–,–,1.7,–,1.79,3.12 ± 0.6,–,–,3.09,–,–,–,–
COCc1cc(CN2CCN(C)CC2)c(O)c2ncccc12 [Compound 35],77.2 ± 11.6,75.9,26.49 ± 0.12,26.3,8.82 ± 1.41,27.54 ± 0.13,–,8.71,1.1,2.81,24.8 ± 3.36,30.2 ± 0.64,30.2,24.5,–,–,1.10,–
CCOCc1cc(CN2CCN(C)CC2)c(O)c2ncccc12 [Compound 36],66.6 ± 20.8,63.1,24.1 ± 10.1,22.4,7.43 ± 0.46,17.1 ± 2.19,17,7.41,1.34,3.09,23 ± 1.46,22.9 ± 1.08,22.9,22.9,–,22.9,–,22.9
CCCOCc1cc(CN2CCN(C)CC2)c(O)c2ncccc12 [Compound 37],19.9 ± 9.14,18.2,6.19 ± 1.73,5.89,3.24 ± 0.19,7.41 ± 0.01,7.41,3.24,1.66,4.17,13.5 ± 0.86,12.3 ± 0.28,12.3,13.5,–,–,–,–

# Molecules with a lower IC50 (A431 cells; [1]), results first:
IC50 (A431 cells; [1]) [µM],IC50 (A431 cells; [2]) [µM],IC50 (A431-B1 cells; [11]) [µM],IC50 (A431-B1 cells; [12]) [µM],SMILES,IC50 (MES-SA/Dx5 cells; [3]) [µM],IC50 (MES-SA/Dx5 cells; [4]) [µM],IC50 (MES-SA/Dx5 cells; [5]) [µM],IC50 (MES-SA/Dx5 cells; [6]) [µM],SR_TQ (MES-SA/Dx5 cells),SR (MES-SA/Dx5 cells),IC50 (MES-SA cells; [7]) [µM],IC50 (MES-SA cells; [8]) [µM],IC50 (MES-SA cells; [9]) [µM],IC50 (MES-SA cells; [10]) [µM],IC50 (MES-SA/Dx5 cells; [13]) [µM],IC50 (MES-SA cells; [14]) [µM],"SR (MES-SA_TQ / Dx5_TQ) (values in parentheses) (MES-SA/Dx5 cells; fraction of IC50 in P-gp negative vs positive cells, presence of 1 μM TQ)",IC50 (MES-SA cells; [15]) [µM]
7.45 ± 0.15,7.41,1.97 ± 0.25,1.95,Oc1c(CN2CCCC2)cc(Cl)c2cccnc12 [Compound 15],0.3 ± 0.06,3.21,3.16,0.295,1.35,11.53,3.46 ± 0.51,4.34,4.27,3.39,–,–,–,–
6.72 ± 0.57,6.76,1.53 ± 0.55,1.45,CCCOCc1cc(CN2CCCCC2)c(O)c2ncccc12 [Compound 23],0.34 ± 0.02,2.4 ± 0.04,2.4,0.339,1.48,10.97,3.72 ± 0.25,3.55 ± 0.08,3.55,3.72,2.75,3.8,–,–
8.93 ± 1.44,8.71,1.46 ± 0.08,1.45,CC1CCN(Cc2cc(Cl)c3cccnc3c2O)CC1 [Compound 25],0.26 ± 0.04,1.59,1.58,0.257,1.82,10.37,2.7 ± 0.21,2.88,2.88,2.69,–,–,–,–
7.24 ± 1.78,7.08,1.72 ± 0.15,1.7,CC1CCN(Cc2cc(COC(C)C)c3cccnc3c2O)CC1 [Compound 28],0.36 ± 0.04,2.15 ± 0.22,2.14,0.355,1.41,7.96,2.84 ± 0.35,3.02 ± 0.09,3.02,2.82,–,–,–,–
9.3 ± 3.05,8.91,2.89 ± 0.25,2.88,Oc1c(CN2CCOCC2)cc(Br)c2cccnc12 [Compound 30],0.46 ± 0.04,0.85 ± 0.06,0.851,0.457,1.54,2.46,1.13 ± 0.13,1.32 ± 0.01,1.32,1.12,–,–,–,–
9.99 ± 4.76,8.91,2.33 ± 0.35,2.29,COCc1cc(CN2CCN(c3ccccc3)CC2)c(O)c2ncccc12 [Compound 39],0.48 ± 0.07,0.85 ± 0.08,0.851,0.479,1.41,2.23,1.08 ± 0.15,1.2 ± 0.05,1.2,1.07,–,–,–,–
6.24 ± 1.95,5.89,1.94 ± 0.19,1.91,CCOCc1cc(CN2CCN(c3ccccc3)CC2)c(O)c2ncccc12 [Compound 40],0.34 ± 0.04,1.05 ± 0.1,1.05,0.339,1.54,3.72,1.27 ± 0.15,1.62 ± 0.005,1.62,1.26,–,–,–,–
5.69 ± 0.76,5.62,2.41 ± 0.37,2.4,CCCOCc1cc(CN2CCN(c3ccccc3)CC2)c(O)c2ncccc12 [Compound 41],0.24 ± 0.03,0.83 ± 0.01,0.832,0.24,1.74,6.01,1.45 ± 0.13,1.45 ± 0.07,1.45,1.45,0.955,1.45,–,1.45
7.35 ± 2.49,6.92,1.84 ± 0.48,1.78,CC(C)OCc1cc(CN2CCN(c3ccccc3)CC2)c(O)c2ncccc12 [Compound 42],0.25 ± 0.05,0.66 ± 0.13,0.646,0.245,1.54,4.24,1.06 ± 0.19,1.01 ± 0.16,1,1.05,–,–,–,–

# From article PMC9189845, “Structure–Activity Relationships of 8-Hydroxyquinoline-Derived Mannich Bases with Tertiary Amines Targeting Multidrug-Resistant Cancer” (Journal of Medicinal Chemistry, 2022)
